# According to ChEMBL document CHEMBL1158517, “Discovery of carmegliptin: a potent and long-acting dipeptidyl peptidase IV inhibitor for the treatment of type 2 diabetes” (Bioorg Med Chem Lett, 2010):
# Activity calls are given as the source filed them. The calls are words filed in the database; no cut-off is given here.
# Assays:
# [1] = Distribution coefficient, log D at pH 7.4; type: physicochemical; conditions: octanol/water
# [2] = Permeability coefficient by PAMPA; type: ADME
# [3] = system: Rattus norvegicus; assay: Antidiabetic activity in Zucker fa/fa rat assessed as increase in glucose infusion rate at 20 mg/kg daily once for 7 days by euglycemic hyperinsulinemic clamp; type: functional, organism-based; set-up: dose 20 mg/kg
# [4] = system: Rattus norvegicus; assay: Antidiabetic activity in Zucker fa/fa rat assessed as reduction in glucose level at 0.3 mg/kg pretreated 2 hrs before glucose challenge measured after 40 mins by oral glucose tolerance test; type: functional; set-up: scale not given: the % may be the effect or the level left
# [5] = system: Mus musculus; assay: Antidiabetic activity in db/db mouse assessed as reduction in glucose AUC at 10 mg/kg by oral glucose tolerance test relative to control; type: functional; set-up: scale not given: the % may be the effect or the level left
# [6] = system: Mus musculus; assay: Antidiabetic activity in db/db mouse assessed as reduction in fasting glucose level at 10 mg/kg; type: functional, organism-based; set-up: dose 10 mg/kg
# [7] = system: Phospholipidosis; assay: In vitro phospholipidosis at <20uM; type: ADME
# [8] = biological target: T1, hERG (KCNH2) (Homo sapiens, UniProt Q12809); assay: Inhibition of human ERG at 10 uM by patch clamp assay
# T1 sequence (Q12809 whole entry): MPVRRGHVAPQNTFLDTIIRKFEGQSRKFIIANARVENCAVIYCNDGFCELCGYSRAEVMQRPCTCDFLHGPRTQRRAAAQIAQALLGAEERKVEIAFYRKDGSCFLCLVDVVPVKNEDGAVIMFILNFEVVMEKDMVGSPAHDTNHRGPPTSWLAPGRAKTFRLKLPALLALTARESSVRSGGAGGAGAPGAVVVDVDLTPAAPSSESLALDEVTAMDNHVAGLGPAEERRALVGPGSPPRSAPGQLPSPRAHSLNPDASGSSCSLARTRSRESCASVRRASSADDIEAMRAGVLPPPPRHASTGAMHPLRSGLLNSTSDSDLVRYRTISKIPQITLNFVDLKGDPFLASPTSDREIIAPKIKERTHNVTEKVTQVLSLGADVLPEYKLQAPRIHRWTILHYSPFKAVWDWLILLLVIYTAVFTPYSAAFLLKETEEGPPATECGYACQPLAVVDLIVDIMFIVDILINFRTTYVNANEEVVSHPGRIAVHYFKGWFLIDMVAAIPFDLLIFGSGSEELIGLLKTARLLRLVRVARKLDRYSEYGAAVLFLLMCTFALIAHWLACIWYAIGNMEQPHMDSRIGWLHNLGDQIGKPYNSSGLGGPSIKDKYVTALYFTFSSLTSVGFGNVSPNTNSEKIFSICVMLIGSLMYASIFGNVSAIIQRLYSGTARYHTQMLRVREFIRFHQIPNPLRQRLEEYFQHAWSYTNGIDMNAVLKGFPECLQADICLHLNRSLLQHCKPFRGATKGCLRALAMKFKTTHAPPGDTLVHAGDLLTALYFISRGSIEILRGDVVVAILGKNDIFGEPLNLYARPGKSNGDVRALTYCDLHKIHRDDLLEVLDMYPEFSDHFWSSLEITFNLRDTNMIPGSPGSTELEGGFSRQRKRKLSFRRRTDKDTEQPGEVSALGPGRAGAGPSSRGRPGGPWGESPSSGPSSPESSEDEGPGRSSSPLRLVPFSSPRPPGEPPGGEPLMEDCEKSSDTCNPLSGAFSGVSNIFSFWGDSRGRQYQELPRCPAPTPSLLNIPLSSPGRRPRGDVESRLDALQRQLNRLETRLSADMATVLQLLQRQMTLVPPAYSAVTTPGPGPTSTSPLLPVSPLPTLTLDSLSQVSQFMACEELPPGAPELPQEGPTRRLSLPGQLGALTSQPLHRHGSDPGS
# [9] = Half life in Wistar rat at 1 mg/kg, iv; type: ADME, organism-based; set-up: dose 1 mg/kg, route intravenous; conditions: in vivo
# [10] = Volume of distribution at steady state in cynomolgus monkey at 1 mg/kg, iv; type: ADME, organism-based, Macaca fascicularis; set-up: dose 1 mg/kg, route intravenous; conditions: in vivo, read-out: Vdss
# [11] = Clearance in Wistar rat at 1 mg/kg, iv; type: ADME, organism-based; set-up: dose 1 mg/kg, route intravenous; conditions: in vivo
# [12] = Clearance in cynomolgus monkey at 1 mg/kg, iv; type: ADME, organism-based, Macaca fascicularis; set-up: dose 1 mg/kg, route intravenous; conditions: in vivo
# [13] = Oral bioavailability in cynomolgus monkey at 3 mg/kg; type: ADME, organism-based, Macaca fascicularis; conditions: in vivo
# [14] = Oral bioavailability in Wistar rat at 3 mg/kg; type: ADME, organism-based; conditions: in vivo
# [15] = Volume of distribution at steady state in Wistar rat at 1 mg/kg, iv; type: ADME, organism-based; set-up: dose 1 mg/kg, route intravenous; conditions: in vivo, read-out: Vdss
# [16] = Half life in cynomolgus monkey at 1 mg/kg, iv; type: ADME, organism-based, Macaca fascicularis; set-up: dose 1 mg/kg, route intravenous; conditions: in vivo
# [17] = species on record: Rattus norvegicus; assay: Renal clearance in rat as % of total clearance; type: ADME, organism-based, Kidney; conditions: in vivo
# [18] = system: Rhesus monkey; assay: Renal clearance in monkey as % of total clearance; type: ADME, organism-based, Macaca mulatta, Kidney; conditions: in vivo
# [19] = system: Cynomolgus monkey; assay: Inhibition of DPP4 in cynomolgus monkey plasma assessed as remaining activity at 3 mg/kg, po after 24 hrs relative to control; type: functional, Macaca fascicularis
# [20] = system: Rattus norvegicus; assay: Antidiabetic activity in Zucker fa/fa rat assessed as reduction in hepatic glucose production at 20 mg/kg daily once for 7 days by euglycemic hyperinsulinemic clamp; type: functional
# [21] = species on record: Canis familiaris; assay: Renal clearance in dog as % of total clearance; type: ADME, organism-based, Canis lupus familiaris, Kidney; conditions: in vivo
# [22] = biological target: T1, hERG (KCNH2); assay: Inhibition of human ERG by patch clamp assay
# [23] = system: Cynomolgus monkey; assay: Inhibition of DPP4 in cynomolgus monkey plasma assessed as remaining activity at 3 mg/kg, po after 48 hrs relative to control; type: functional, Macaca fascicularis
logD [1],permeability [2],Structure (SMILES),Activity [4],Phospholipidosis [7],further results
-0.5,0.6 ×10⁻⁶ cm/s,COc1cc2c(cc1OC)C1CC(N)C(N3CCCC3=O)CN1CC2 (stereo not given),–,–,–
0,1.1 ×10⁻⁶ cm/s,COc1cc2c(cc1OC)C1CC(N)C(N3CC(C)CCC3=O)CN1CC2 (stereo not given),34%,Not Active,–
-0.5,0.2 ×10⁻⁶ cm/s,COc1cc2c(cc1OC)C1CC(N)C(N3CCCCC3=O)CN1CC2 (stereo not given),33%,–,–
-0.9,0.1 ×10⁻⁶ cm/s,COc1cc2c(cc1OC)C1CC(N)C(N3CCCOC3=O)CN1CC2 (stereo not given),–,–,–
-0.7,1.2 ×10⁻⁶ cm/s,COc1cc2c(cc1OC)C1CC(N)C(N3CCC[S+]3[O-])CN1CC2 (stereo not given),–,–,–
-0.5,0.2 ×10⁻⁶ cm/s,COc1cc2c(cc1OC)[C@@H]1C[C@H](N)[C@@H](N3CCCCC3=O)CN1CC2,56%,Not Active,half-life [9]: 4.5 h; Vd [10]: 8.6 L/kg; clearance [11]: 25 mL/min/kg; clearance [12]: 18.7 mL/min/kg; inhibition at 10 µM [8]: 45%; bioavailability [13]: 64%; bioavailability [14]: 47%; Vd [15]: 5.9 L/kg; half-life [16]: 9.4 h
-0.4,0.7 ×10⁻⁶ cm/s,COc1cc2c(cc1OC)C1CC(N)C(N3CCCC[S+]3[O-])CN1CC2 (stereo not given),18%,–,–
-0.1,0.9 ×10⁻⁶ cm/s,CCC1CC(=O)N(C2CN3CCc4cc(OC)c(OC)cc4C3CC2N)C1 (stereo not given),31%,–,inhibition at 10 µM [8]: 45%

# The remaining lines, values behind:
Structure (SMILES),logD [1],permeability [2],Activity [4],Phospholipidosis [7],further results
COc1cc2c(cc1OC)[C@@H]1C[C@H](N)[C@@H](N3C[C@@H](C)CC3=O)CN1CC2,-0.1,0.6 ×10⁻⁶ cm/s,79%,Not Active,Activity [3]: Active; Activity [5]: 50%; Activity [6]: Active
COc1cc2c(cc1OC)C1CC(N)C(N3CCOC3=O)CN1CC2 (stereo not given),-0.8,0 ×10⁻⁶ cm/s,–,–,–
COc1cc2c(cc1OC)[C@@H]1C[C@H](N)[C@@H](N3C[C@H](C)CC3=O)CN1CC2,-0.3,0.8 ×10⁻⁶ cm/s,46%,–,–
COc1cc2c(cc1OC)C1CC(N)C(N3CC(C)CC3=O)CN1CC2 (stereo not given),-0.2,0.2 ×10⁻⁶ cm/s,42%,Not Active,inhibition at 10 µM [8]: 9%
COc1cc2c(cc1OC)C1CC(N)C(N3CCC(C)CC3=O)CN1CC2 (stereo not given),-0.2,0.5 ×10⁻⁶ cm/s,16%,–,–
COc1cc2c(cc1OC)[C@@H]1C[C@H](N)[C@@H](N3C[C@H](CF)CC3=O)CN1CC2,-0.4,0.4 ×10⁻⁶ cm/s,77%,Not Active,Activity [5]: 20%
COc1cc2c(cc1OC)[C@@H]1C[C@H](N)[C@@H](N3C[C@@H](CF)CC3=O)CN1CC2 [CARMEGLIPTIN],-0.5,0.13 ×10⁻⁶ cm/s,66%,Not Active,half-life [9]: 5.3 h; Fraction cleared renally [17]: 30%; Fraction cleared renally [18]: 30%; Activity [3]: Active; Vd [10]: 3.3 L/kg; clearance [11]: 24 mL/min/kg; Activity [19]: 40%; clearance [12]: 8.5 mL/min/kg; Activity [20]: 1.3 mg/min/kg; Activity [5]: 30%; Activity [6]: Active; Fraction cleared renally [21]: 30%; bioavailability [13]: 33%; bioavailability [14]: 28%; IC20 [22]: 21 µM; Activity [23]: 60%; Vd [15]: 6.3 L/kg; half-life [16]: 6.8 h
